One assay relates to GBM43 cells. The experiment in a line: ELISA of CCL5 and CXCL10 in supernatant of GBM43 cells. The class given is cell-based, human. The following applies: with CQ 50 μM, 24 h. An excerpt:
To evaluate changes in the protein levels of these chemokines and gain more insight into the underlying molecular mechanisms, chemokine concentrations were quantified in the conditioned media of CQ-treated GBM43 cells using ELISA in absence and presence of various pharmacological inhibitors driving signaling pathways for these chemokines. This included the PI3K inhibitor LY294002, NF-κB inhibitor BAY11-7082 and JNK inhibitor SP600125.
More specifically, to measure secreted CCL5 and CXCL10, GBM43 cells were treated with CQ at a final concentration of 50 μM in presence or absence of various small molecule inhibitors, including LY294002, BAY11-7082 and SP600125 for 24 hours. Supernatants were collected and the levels of CCL5 and CXCL10 were quantified using Human CCL5 and CXCL10 Biolegend-ELISA MAX™ Deluxe Sets according to the manufacturer's directions. To look at the levels of multiple chemokines secretion from GBM43 cells, the cell culture supernatants were also collected and all the selected targets were determined with the chemokine array provided by Eve Technologies (Calgary, Canada).

Assay [1] relates to pNK cells. Briefly: Effect of adenosine on pNK cell viability (CCK-8) and NKG2D expression (flow cytometry). The class given is cell-based, human. The note with it: 1000 μM adenosine, 24 h. On the procedure:
To verify this, pNK cells were seeded into a 24-well plate at a density of 5×10^5 cells/well in 500 μL medium. Adenosine was then added to a final concentration of 1000 μM. After 24 h, the cells were collected and their viability (%) was determined via a CCK-8 assay (subpart A of FIG. 2). The NKG2D expression (% and MFI) was determined by flow cytometry (subpart B of FIG. 2). […] These findings support that there is a need to increase NKG2D expression on NK cells through engineering.

Assay [2] relates to pNK cells. The experiment in a line: Transwell BBB migration assay of pNK cells. The class given is cell-based, human. The following applies: 100 ng/mL in lower chamber, 6 hours. As for the experimental part:
To determine involvement of CCL5 and CXCL10 in the migration of NK cells, the migration of activated pNK cells toward CCL5 and CXCL10 gradients was then tracked using an in vitro BBB model setup by a direct contact co-culture of primary human astrocytes and […] human cerebral microvessel endothelial cells (FIG. 12, subpart G).
An in vitro direct contact co-culture blood-brain barrier (BBB) model was established as previously described^53. Briefly, human astrocytes were seeded at a density of 4×10^4 cells/cm^2 into 24-well Transwell® inserts (pore size 5 μm) pre-coated with 2 μg/cm^2 poly-L-lysine and allowed to proliferate/differentiate for 48 hours in media. Media was then removed and the hCMEC/D3 cells suspended into EBM-2 media were seeded at a density of 1×10^5 cells/cm^2.
The co-culture was grown in EBM-2 with media changes every other day for an additional 7 days before studies were conducted. 600 μL of RPMI1640 medium supplemented with 1% FBS containing recombinant CCL5 or CXCL10 at 100 ng/mL was placed in the lower chamber of the Transwell® plate. Activated pNK cells (5×10^5) in 100 μL RPM11640 medium supplemented with 1% FBS were placed into the upper chamber (5-μm pore size). After incubation for 6 hours at 37° C. and 5% CO2, the number of pNK cells that migrated into the lower chamber was determined by flow cytometry. […]

In assay [3] the target is T1, CD73 (ecto-5'-nucleotidase, NT5E) on patient-derived GBM43 glioblastoma cells (human, UniProt P21589 27-549).
T1 construct: whole, on cells; Endogenous surface CD73 of human patient-derived GBM43 cells, in culture or as xenograft tumors
T1 sequence (looked up): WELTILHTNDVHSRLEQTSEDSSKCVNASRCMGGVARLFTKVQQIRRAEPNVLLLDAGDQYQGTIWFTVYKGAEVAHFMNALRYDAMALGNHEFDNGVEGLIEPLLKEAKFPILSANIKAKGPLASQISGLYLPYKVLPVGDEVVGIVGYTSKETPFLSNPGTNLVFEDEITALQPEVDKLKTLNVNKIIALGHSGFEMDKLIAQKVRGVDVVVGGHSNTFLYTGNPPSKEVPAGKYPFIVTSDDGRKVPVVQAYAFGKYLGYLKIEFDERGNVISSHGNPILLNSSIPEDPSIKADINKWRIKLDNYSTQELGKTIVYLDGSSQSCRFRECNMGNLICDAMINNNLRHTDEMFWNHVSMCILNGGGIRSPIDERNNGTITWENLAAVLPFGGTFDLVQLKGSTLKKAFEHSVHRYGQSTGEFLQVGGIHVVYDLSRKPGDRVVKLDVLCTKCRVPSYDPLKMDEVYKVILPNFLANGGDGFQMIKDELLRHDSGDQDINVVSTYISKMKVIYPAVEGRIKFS
Briefly: immunofluorescence (Protein L) on sections of subcutaneous GBM43 xenograft tumors.

The test system of the next assay is CD73. The experiment in a line: CD73 activity of GBM43 cells (AMP hydrolysis, malachite green phosphate assay). The class given is cell-based, human. As for the experimental part: To test for CD73 activity and its ability to generate adenosine, GBM43 cells were seeded at 2×10^4 cells per well in a 96-well plate in complete DMEM. After overnight incubation, GBM43 cells were incubated with anti-CD73 scFv following uPA (100 nM)-mediated cleavage from either CD73.mCAR-NK92 or CD73.mCAR-pNK cells during incubation for 6 hours. Then, the cell medium was removed and cells were rinsed three times with phosphate-free buffer (117 mM NaCl, 5.3 mM KCl, 1.8 mM MgCl2, 26 mM NaHCO3, 10 mM glucose, pH 7.4, diluted in ddH2O). AMP (250 μM final), diluted in phosphate-free buffer, was added and incubated for 10 min at 37° C. Finally, the phosphate (Pi) concentrations resulting from AMP hydrolysis were measured using a malachite green phosphate assay kit following the manufacturer's instructions.

`Cc1ccc(S(=O)(=O)/C=C/C#N)cc1` [BAY11-7082]: the “inhibition of the CQ-elevated production of CCL5 and CXCL10” value with GBM43 cells is on record as “significantly inhibited”.

With `Nc1ncnc2c1ncn2[C@@H]1O[C@H](CO)[C@@H](O)[C@H]1O` [adenosine], the “cell viability of pNK cells” value in the assay with pNK cells [1] (CCK-8) is reported as “clear negative affect”. The “NKG2D expression on pNK cells” value in the assay with pNK cells [1] (flow cytometry) was “decreased”.

In the case of CXCL10: Recombinant human CXCL10, in the assay on pNK cells [2], the “migration of activated pNK cells along ligand gradient across in vitro BBB” value was “significantly increased”.

B1: anti-CD73 scFv cleaved by uPA or tumor-associated proteases from Construct 1 (CD73.mCAR) on engineered NK cells (scFv)
scFv: EVQLLESGGGLVQPGGSLRLSCAASGFTFSSYAYSWVRQAPGKGLEWVSAISGSGGRTYYADSVKGRFTISRDNSKNTLYLQMNSLRAEDTAVYYCARLGYGRVDEWGRGTLVTVSSGGGGSGGGGSGGGGSQSVLTQPPSASGTPGQRVTISCSGSLSNIGRNPVNWYQQLPGTAPKLLIYLDNLRLSGVPDRFSGSKSGTSASLAISGLQSEDEADYYCATWDDSHPGWTFGGGTKLTVLGGGGSGGGGSGGGGS
notes: Soluble fragment released from CD73.mCAR-NK92 or CD73.mCAR-pNK cells, by 100 nM uPA in vitro or by tumor proteases in vivo; also called αCD73 scFv; aCD73 scFv; not shown: the cleavage site is
As for B1, in assay [3], the binding result is listed as “binds”.

B2: anti-CD73 scFv: CD73-blocking single chain antibody fragment released from the CAR by uPA / tumor-associated protease cleavage (protein)
scFv: EVQLLESGGGLVQPGGSLRLSCAASGFTFSSYAYSWVRQAPGKGLEWVSAISGSGGRTYYADSVKGRFTISRDNSKNTLYLQMNSLRAEDTAVYYCARLGYGRVDEWGRGTLVTVSSGGGGSGGGGSGGGGSQSVLTQPPSASGTPGQRVTISCSGSLSNIGRNPVNWYQQLPGTAPKLLIYLDNLRLSGVPDRFSGSKSGTSASLAISGLQSEDEADYYCATWDDSHPGWTFGGGTKLTVLGGGGSGGGGSGGGGS
modifications: left off: small tags and cut ends
As for B2, in the assay with CD73 (scFv cleaved by uPA from CD73.mCAR-NK92 cells), the “production of extracellular adenosine by GBM43 cells (CD73 activity)” value was “significantly decreased production”. Further, the “ability of GBM43 cells to produce adenosine (CD73 activity)” value in the assay on CD73 (scFv cleaved from CD73.mCAR-pNK cells) is “significantly reduced ability to produce adenosine”.

B3: CCL5: Recombinant human RANTES (CCL5) (protein, UniProt P13501 24-91, looked up)
C-C motif chemokine 5: SPYSSDTTPCCFAYIARPLPRAHIKEYFYTSGKCSNPAVVFVTRKNRQVCANPEKKWVREYINSLEMS
With B3, in the assay with pNK cells [2], the “migration of activated pNK cells along ligand gradient across in vitro BBB” value was “significantly increased”.

For the origin of these results see patent US20220362299A1, “ENGINEERED NATURAL KILLER CELLS AND METHODS FOR USING THE SAME IN IMMUNOTHERAPY AND AUTOPHAGY INHIBITON TECHNIQUES” (Purdue Research Foundation, priority 2019, published 2022).
